Measured values from patent publication US8735443B2, “Method of treating diabetes-related vascular complications” (Kuwait University, priority 2008, dated 2014).

What was measured:
[1] = tested on: cultured arteries; assay: Cultured arteries of non-diabetic control animals exposed to TNF-α; design: species or system rat; conditions: pretreatment with LA
[2] = tested on: TNF-α; assay: Plasma TNF-α ELISA; format: in vivo, rat; conditions: GK rats, LA chronic therapy
Description: Plasma TNF-α levels from various experimental groups were determined using a rat TNF-α ELISA kit, and tissue protein content was determined using bovine serum albumin as a standard.

[3] = tested on: diabetic fibroblasts (DFs); assay: LDH release assay (necrotic cell death) in fibroblasts; format: cell-based, rat; conditions: lipoic acid 500 μM, Nrf2-dependent
Text: (§1) To determine the effect of α-lipoic acid on isolated cells from normal and diabetic rats, primary rat fibroblasts were derived from dorsal skin biopsies performed on four diabetic Coto Kakizaki rats (DFs) and four age-matched (12-14 months) and sex-matched (female) Wistar control rats (CFs). After sterilization in povidine solution, the rat skin was washed in sterile water and rinsed in 70% ethanol in phosphate-buffered saline (PBS). The epidermis and dermis were separated following overnight incubation in 0.25% Trypsin/EDTA at 4° C. Samples were washed, diced and digested for thirty minutes at 37° C. in collagenase type I (250 U/ml) dissolved in Dulbecco's modified Eagle medium (DMEM; Invitrogen) containing penicillin (100 U/ml), 2 mM L-glutamine and 26 mM HEPES. After collagenase treatment, the cells were dislodged, centrifuged and resuspended in medium supplemented with 10% fetal bovine serum. The cells were grown under standard conditions, and the medium was changed every three to four days. Control and diabetic fibroblasts were grown under normo-glycemic conditions (5.5 mM glucose) and used in experiments at passage 3 to 5.
(§2) Fibroblasts were seeded at 1×10^4 cells/well on a 96-well plate. […] Quantification of cell viability was assessed using a Cell Counting Kit-8 (Dojindo, Kumamoto, Japan). […]

[4] = tested on: ICAM-1; assay: Aortic mRNA expression by QRT-PCR, ICAM-1; format: in vivo, rat; conditions: GK rats, LA therapy
Description: (§3) An expression of a number of inflammatory markers, including IL-6 and ICAM-1, were measured in control, diabetic and LA-treated diabetic vessels. The results confirmed marked elevation in the vascular expression of both […] and ICAM-1 during diabetes, as shown in FIGS. 11A and 11B. […] Aortic expression of IL-6 is shown in FIG. 11A and aortic expression of intracellular adhesion molecule (ICAM-1) is shown in FIG. 11B. Both were determined using QRT-PCR based techniques.

[5] = tested on: NF-κB; assay: Aortic nuclear NF-κB, western blotting; format: in vivo, rat; conditions: GK rats, LA chronic therapy
Description: For detection of caspase 3-like activity, protein was isolated and caspase activity was detected in resulting supernatant using an APO-ONE homogenous caspase 3/7 assay (Promega). With regard to subcellular fractionation and western blotting, aortic tissue nuclear extracts were prepared and protein (40 μg) was loaded in each well of […] polyacrylamide gel. Separated polypeptide was transferred to nitrocellulose membrane IBio-Rad) and probed with anti NFκB at a 1:2,000 […]. Chemiluminescent detection was performed by an ECL Western Blotting Detection Kit®.
It is well known that TNF-α enhances the activity of NF-κB, most probably via H202 mediated mechanisms. Using data showing that both TNF-α and H202 levels were elevated in diabetic vascular tissues, NF-κB activity was assessed using a western blotting-based technique with an antibody (anti P65) that specifically recognizes the active form of this transcription factor. […] Nuclear localization of NF-κB in aortic tissues was determined using differential centrifugation and western blotting-based techniques.

[6] = tested on: control fibroblasts (CFs); assay: Cell viability after hydrogen peroxide (Cell Counting Kit-8), control fibroblasts; format: cell-based, rat; conditions: lipoic acid 500 μM, Nrf2-dependent
Text: as §1, §2

[7] = tested on: IL-6; assay: Aortic mRNA expression by QRT-PCR, IL-6; format: in vivo, rat; conditions: GK rats, LA therapy
Description: as §3

[8] = tested on: diabetic fibroblasts (DFs); assay: Cell viability after hydrogen peroxide (Cell Counting Kit-8), diabetic fibroblasts; format: cell-based, rat; conditions: diabetic fibroblasts, lipoic acid 500 μM, Nrf2-dependent
Text: as §1
Fibroblasts were seeded at 1×10^4 cells/well on a 96-well plate. After a 24 hour incubation period, the cells were exposed to various concentrations of HP in serum-free medium at 37° C. for 2 hours [lactate dehydrogenase (LDH), a marker for necrotic cell death], or for 16 hours (cell viability). Quantification of cell viability was assessed using a Cell Counting Kit-8 (Dojindo, Kumamoto, Japan). The values obtained were normalized to the vehicle-treated cells. To measure the rate of necrotic cell death, an LDH release assay was performed using a CytoTox-ONE Homogeneous Membrane Integrity Assay kit (Promega). Expression of Nrf2 was inhibited by small-interfering RNA (siRNA) oligonucleotides. The sequences were designed and synthesized by Qiagen. The best silencing efficiency was obtained by incubating 2.0×10^5 cells/well in a 6-well plate with complexes formed by 5 nM siRNA (1 μl) and 9 μL of HiPerfect transfection reagent (Qiagen) dissolved in 90 μl medium, according to the manufacturer's instructions. The transfection was achieved by adding 0.9 ml of medium to the seeded cells followed by 100 μl of siRNA/HiPerfect complex. Knock-out efficiency was verified by real-time PCR and Western blot. Twenty-four hours later, 1 ml of fresh medium was added; 48 hr after transfection the cells were exposed to either vehicle or lipoic acid at a concentration of 500 μM.

[9] = tested on: aortic vessels; assay: Dihydroethidium / ethidium bromide fluorescence of aortic sections; format: in vivo, rat; conditions: LA-treated diabetic rats
Description: Dihydroethidium (DHE), an oxidative fluorescent dye, was used to localize superoxide production in situ. DHE is oxidized on reaction with superoxide to ethidium bromide, which binds to DNA in the nucleus and fluoresces. Arteries were embedded in OCT medium, frozen and cryosectioned. Vascular sections were incubated with DHE at a concentration (10^−6 mol/l) at 37° C. for 30 minutes. DHE images from serial sections were obtained using a Zeiss Axioplan 2000 fluorescence microscope.

O=C(O)CCCCC1CCSS1 (stereo not drawn) [LA, alpha-lipoic acid]
TNF-α-induced abnormalities (O2− generation, caspase 3/7, DNA fragmentation, Ach-induced vasorelaxation) [1]: partially reversed | diabetes related up-regulation of TNF-α protein (plasma) [2]: Reversal | LDH release into cell culture media (necrotic cell death) in response to HP [3]: reduces cell death | diabetic vascular proinflammatory phenotype, aortic expression of ICAM-1 [4]: partially reversed | high NF-κB level in vascular diabetic nuclei [5]: reversed | protection of cell viability from hydrogen peroxide [6]: protected | diabetic vascular proinflammatory phenotype, aortic expression of IL-6 [7]: partially reversed | protection of cell viability from hydrogen peroxide [8]: protected | nuclear EB fluorescence in aortic vessels [9]: significantly reduced
